Like-named read-outs stand apart in the source and are kept apart here.
Assays:
Guinea-pig trachea = assay: Isolated guinea-pig trachea (relaxation of carbacholine-contracted tracheal muscle); conditions: >1 more potent than theophylline; for Guinea-pig Tracheal Preparation Potency: Table III, potency ratio from EC50 values, theophyllin = 1 by definition; for Guinea-Pig trachea Potency rations of theophylline: Table II, molar potency ratio from EC50 values (50% maximum response), theophylline = 1 by definition, carbacholine 0.1 μg/ml
Method: Guinea-pigs of both sexes, weighing between 150 and 250 g, were killed by a blow on the head and bled. The trachea was removed and cut spirally yielding one or two preparations. The tracheal preparations were mounted in organ baths containing Krebs solution maintained at 37° C. and bubbled with carbogen (95% O2 +5% CO2). Isometric tension reflecting the activity in circular tracheal muscle was recorded by means of a force displacement transducer. Initial tension was set at 0.5 g which was the approximate basal tension kept during the experiment. Evaluation of relaxant effects was done when the preparations had contracted to a stable tension by the addition of carbacholine 0.1 μg/ml to the bath. […] After washing out the drugs the trachea resumed its basal tone and was left to stabilize for at least 15 min. before the next drug evaluation was performed. Between two evaluations of theophylline the effect of the test drug was examined and its EC50 value was compared with the mean of the previous and following EC50 values of theophylline.
(§1) The left column lists molar potency ratios for bronchodilatation between theophylline and various xanthine compounds. Toxic symptoms occuring before death in mice receiving constant rate infusion of drug i.v. are accounted for in the middle column. […] The far right column indicates cardiotonic activity as positive chronotropic potency.
The guinea-pig trachea were prepared as was discribed previously. Isomeric tension reflecting the activity in circular tracheal muscle was recorded by a force displacement transducer.

[1] = Source text: as §1
Guinea-pig heart = assay: Isolated guinea-pig hearts (Langendorff), chronotropic potency; conditions: Table II; positive chronotropic potency; theophylline = 1
Method: From the bled guinea-pigs, the hearts were immediately removed and perfused with oxygenated Krebs solution at 37° according to Langendorff. The heart was mounted in a thermostatically controlled organ bath (25 ml) containing Krebs solution. A saline-filled, open-end polyethylene catheter was inserted into the right ventricle through the pulmonary artery. The catheter was fixed to the pulmonary artery by a ligature just above the valvular plane. It was connected to a pressure transducer (P23 AC), making it possible to record changes in intraventricular pressure. From these, the contraction frequency was obtained. Drugs were given as single bolus injections into the perfusion solution.
as §1

[2] = Acute toxicity studies in mice (intravenous and oral); format: in vivo, male NMRI mice; conditions: i.v. or oral, observed 14 days
Method: Male NMRI mice, weighing 20-26 g. starved for 6 h were used. The compounds, dissolved in 0.5M NaOH and 0.85% NaCl-solution (pH 10.6-12.1) were administered as follows:
(a) intravenously, 0.1 ml/10 g at an injection rate of 0.3 ml per minute
At least seven dose levels, doses increasing in a geometric progression with a factor 1.2, were examined. Each dose was given to 5 animals. […] The position of extremities in dead animals indicated whether they had died in convulsions or not.

[3] = constant rate i.v. infusion, type of convulsion as in the effects column
[4] = toxic symptoms before death, constant rate i.v. infusion

| Structure (SMILES) | Guinea-pig Tracheal Preparation Potency (Guinea-pig trachea) | Convulsion test mice i.v., Death ([1]; constant rate i.v. infusion) [mg/kg i.v.] | Guinea-Pig heart Potency ratios of theophylline, Chronotrop (Guinea-pig heart) | Guinea-Pig trachea Potency rations of theophylline (Guinea-pig trachea) | also measured |
| --- | --- | --- | --- | --- | --- |
| CC(O)Cn1c(=O)[nH]c(=O)c2[nH]cnc21 (stereo not drawn) [D 4083, reference compound] | 0.1 | – | – | – | – |
| O=c1[nH]c(=O)n(C2CCC2)c2nc[nH]c12 [D 4164, 3-cyclobutyl-3,7-dihydro-1H-purine-2,6-dione] | – | 519.2 ± 16.86 | 2.1 | 3.8 | Convulsion test mice i.v., number of animals with convulsions / animals tested ([1]; mouse, in vivo, iv): 3/10 |
| O=c1[nH]c(=O)n(C2CC2)c2nc[nH]c12 [D 4161, 3-cyclopropyl-3,7-dihydro-1H-purine-2,6-dione] | – | 1030 ± 39.3 | – | 0.5 | Convulsion test mice i.v., number of animals with convulsions / animals tested ([1]; mouse, in vivo, iv): 1/10 |
| O=c1[nH]c(=O)n(CCCO)c2nc[nH]c12 [D 4184, reference compound] | 0.1 | – | – | – | – |
| Cc1nc2c([nH]1)c(=O)[nH]c(=O)n2CC(C)(C)C [D 4070, 3,7-dihydro-3-(2,2-dimethylpropyl)-8-methyl-1H-purine-2,6-dione] | 1.8 | 693.3 ± 22.2 | 1.5 | 1.8 | Convulsion test mice i.v., Effects ([1]; mouse, in vivo, iv): loss of balance |
| CC(C)(C)Cn1c(=O)[nH]c(=O)c2[nH]cnc21 [D 4034, 3,7-dihydro-3-(2,2-dimethylpropyl)-1H-purine-2,6-dione] | 3.0 | 519.1 ± 16.6 | 3 | 3 | – |
| Cc1nc2c([nH]1)c(=O)[nH]c(=O)n2CC1CCCCC1 [D 4137, 3,7-dihydro-8-methyl-3-cyclohexylmethyl-1H-purine-2,6-dione] | – | 493.1 ± 19.4 | 10 | 4 | – |
| Cn1c(=O)c2[nH]cnc2n(C)c1=O [Theophylline, theophylline, reference compound] | 1.0 | 446.3 ± 9.6 | – | – | Convulsion test mice i.v., number of animals with convulsions / animals tested [1, 3]: 30/30; Convulsion test mice i.v., number of animals with convulsions / animals tested ([1]; constant rate i.v. infusion, type of convulsion as in the effects column, listed as theophylline): 30 out of 30; Convulsion test mice i.v., Effects [1, 4]: tonic conv.; Convulsion test mice i.v., Effects ([1]; toxic symptoms before death, constant rate i.v. infusion, listed as theophylline): consistently produced tonic convulsions; Convulsive activity in acute toxicity studies [2]: repeatedly shown to occur |
| O=c1[nH]c(=O)n(CC2CCCCC2)c2nc[nH]c12 [D 4138, 3,7-dihydro-3-cyclohexylmethyl-1H-purine-2,6-dione] | – | 543.6 ± 31.7 | 15 | 5 | – |
| Cn1c(=O)c2c(ncn2C)n(C)c1=O [Caffeine, caffeine, reference compound] | – | 391.7 ± 17.7 | 0.5 | 1 | Convulsion test mice i.v., number of animals with convulsions / animals tested [1, 3]: 20/20; Convulsion test mice i.v., number of animals with convulsions / animals tested ([1]; constant rate i.v. infusion, type of convulsion as in the effects column, listed as caffeine): 20 out of 20; Convulsion test mice i.v., Effects [1, 4]: tonic conv.; Convulsion test mice i.v., Effects ([1]; toxic symptoms before death, constant rate i.v. infusion, listed as caffeine): consistently produced tonic convulsions |
| O=c1[nH]c(=O)n(CCO)c2nc[nH]c12 [D 4077, reference compound] | 0.1 | – | – | – | – |
| O=c1[nH]c(=O)n(C2CCCC2)c2nc[nH]c12 [D 4132, 3-cyclopentyl-3,7-dihydro-1H-purine-2,6-dione] | – | 593 ± 21.9 | 3.4 | 5.65 | – |
| Cc1nc2c([nH]1)c(=O)[nH]c(=O)n2CC(C)C [D 4169, 3,7-dihydro-8-methyl-3-(2-methylpropyl)-1H-purine-2,6-dione] | 3.3 | – | – | – | – |
| Cc1nc2c([nH]1)c(=O)[nH]c(=O)n2CC(C)O (stereo not drawn) [D 4125, reference compound] | 0.4 | – | – | – | – |
| Cc1nc2c([nH]1)c(=O)[nH]c(=O)n2C1CCCC1 [D 4134, 3-cyclopentyl-3,7-dihydro-8-methyl-1H-purine-2,6-dione] | – | – | – | 5.85 | – |

Reference: US4548818A, “Composition and methods for the treatment of chronic obstructive airway disease and cardiac disease using 3-alkylxanthines” (priority 1978, dated 1985)
